Like-named read-outs stand apart in the source and are kept apart here.
Key:
HaCaT cells = experiment: Cell viability assay (resazurin), cytotoxicity in non-malignant cells; format: cell-based, human; conditions: read-out: IC50 HaCaT (Non-malignant keratinocyte)
Method: (§1) Cells were grown in Dulbecco's Modified Eagle's Medium (DMEM) supplemented with 100 U/mL penicillin, 100 µg/mL streptomycin and 10% fetal bovine serum. HL60 cell line (acute myeloid leukaemia, AML) was obtained from ATCC. It was cultured in IMDM medium supplemented with 100 U/mL penicillin, 100 µg/mL streptomycin and 10% fetal bovine serum. U937 (AML) and Jurkat cells (ALL) were obtained from DMSZ, Braunschweig, Germany, and ATCC, respectively. They were cultivated in RPMI medium, supplemented with 100 U/mL penicillin, 100 µg/mL streptomycin and 10% fetal bovine serum. […] All cell lines were cultured at 37 ° C with 5% CO2 in a humidified incubator. Cell culture reagents were purchased from Biowest. Exponentially growing cells (3000-6000 cells per well) were seeded in 96-well plates. After 24 hours, cells were treated with the drugs for 72 hours. The cell viability was then estimated with the resazurin assay, a colorimetric technique based on the capability of viable cells to reduce the blue reagent resazurin to the pink-soluble product resorufin. The amount of resorufin produced is proportional to the number of viable cells. Briefly, cells were washed once with phosphate buffered saline (PBS) and 150 µL resazurin (20 µg/mL in medium) was added to each well. The plates were incubated for 3 hours at 37 °C, 5% CO2, and finally optical densities were measured at 540 and 620 nm with a multiwell plate spectrophotometer reader (Multiskan EX Labsystems). Cell viability was calculated as a percentage compared to non-treated cells. The results were expressed as the means ± standard error of the mean (SEM). All data are from at least three independent experiments.

[1] = tested on: T24 (human bladder cancer cells); experiment: Cell viability assay (resazurin), cytotoxic activity against solid tumours; format: cell-based; conditions: for IC50: read-out: IC50 T24 (Bladder cancer); for S.I. T24 (Selectivity Index): IC50 HaCaT divided by IC50 T24, mean of independent experiments
Method: as §1, with “The plates were incubated for 3 hours at 37 °C, 5% CO2, and finally optical densities were measured at 540 and 620 nm with a multiwell plate spectrophotometer reader (Multiskan EX Labsystems).” left out, “experiments. The selectivity index (S.I.) values were calculated over each cancer cell line as the mean of the IC50 value in the non-malignant cell line (HaCaT) by the IC50 in the respective cancer cell line obtained in each independent experiment.” for “experiments.”

[2] = tested on: A549 (human lung adenocarcinoma cells); experiment: as above; format: cell-based; conditions: for IC50: read-out: IC50 A549 (Lung adenocarcino ma); for S.I. A549 (Selectivity Index): IC50 HaCaT divided by IC50 A549, mean of independent experiments
Method: as §1, with “The plates were incubated for 3 hours at 37 °C, 5% CO2, and finally optical densities were measured at 540 and 620 nm with a multiwell plate spectrophotometer reader (Multiskan EX Labsystems).” left out, “experiments. The selectivity index (S.I.) values were calculated over each cancer cell line as the mean of the IC50 value in the non-malignant cell line (HaCaT) by the IC50 in the respective cancer cell line obtained in each independent experiment.” for “experiments.”

[3] = tested on: MeWo (human melanoma cells); experiment: as above; format: cell-based; conditions: for IC50: read-out: IC50 MeWo (Melanoma; BRAF WT); for S.I. MeWo (Selectivity Index): IC50 HaCaT divided by IC50 MeWo, mean of independent experiments
Method: as §1, with “The plates were incubated for 3 hours at 37 °C, 5% CO2, and finally optical densities were measured at 540 and 620 nm with a multiwell plate spectrophotometer reader (Multiskan EX Labsystems).” left out, “experiments. The selectivity index (S.I.) values were calculated over each cancer cell line as the mean of the IC50 value in the non-malignant cell line (HaCaT) by the IC50 in the respective cancer cell line obtained in each independent experiment.” for “experiments.”

[4] = tested on: Jurkat (Acute lymphoblastic leukaemia); experiment: Antileukemic activity, cell viability (CCK-8 Cell Counting Kit); format: cell-based; conditions: Homo sapiens, 18 h incubation, compounds 0 - 100 µM, read-out: IC50 Cancer cells Jurkat (Acute lymphoblastic leukaemia)
Method: (§2) HaCaT cells (human keratinocytes, reference control), A549 (human lung adenocarcinoma cells), MeWo (human melanoma cells) and T24 (human bladder cancer cells) were purchased from Cell Lines Service (CLS). Cells were grown in Dulbecco's Modified Eagle's Medium (DMEM) supplemented with 100 U/mL penicillin, 100 µg/mL streptomycin and 10% fetal bovine serum. HL60 cell line (acute myeloid leukaemia, AML) was obtained from ATCC. It was cultured in IMDM medium supplemented with 100 U/mL penicillin, 100 µg/mL streptomycin and 10% fetal bovine serum. U937 (AML) and Jurkat cells (ALL) were obtained from DMSZ, Braunschweig, Germany, and ATCC, respectively. They were cultivated in RPMI medium, supplemented with 100 U/mL penicillin, 100 µg/mL streptomycin and 10% fetal bovine serum. OPM-2 cell line (MM), was obtained from DMSZ, Braunschweig, Germany and cultured in RPMI medium supplemented with 100 U/mL penicillin, 100 µg/mL streptomycin, 10% fetal bovine serum and 1X GlutaMAXTM. All cell lines were cultured at 37 ° C with 5% CO2 in a humidified incubator. Cell culture reagents were purchased from Biowest.
(§3) For the leukemic cell lines, the CCK-8 Cell Counting Kit (Dojindo Molecular Technologies) was used according to manufacturers instructions. Briefly, 50.000 cells were seeded in each well of a 96 well plate, and they were treated with increased amounts (0 - 100 µM) of each of the compounds, and incubated for 18 h at 37 °C, 5% CO2. After this period, 7 µl of the CCK-8 reagent were added to each well, and cells were further incubated for 2 h at 37 °C, 5% CO2. OD at 450 nm was obtained using a MultiskanTM GO microplate reader (Thermo Fisher Scientific, Waltham, MA, EE.UU). Cell viability in each condition was normalized to the measurement obtained in the non treated samples (100%), and were represented as average ± standard error of the mean (SEM).

OPM-2 (Multiple myeloma) = experiment: as above; format: cell-based; conditions: Homo sapiens, 18 h incubation, compounds 0 - 100 µM, read-out: IC50 Cancer cells OPM-2 (Multiple myeloma)
Method: as §2, §3

[5] = tested on: HL60 (Acute myeloid leukaemia); experiment: as above; format: cell-based; conditions: Homo sapiens, HL-60; 18 h incubation, compounds 0 - 100 µM; read-out: IC50 Cancer cells HL60 (Acute myeloid leukaemia)
Method: as §2, §3

[6] = tested on: U937 (Acute myeloid leukaemia); experiment: as above; format: cell-based; conditions: Homo sapiens, U-937; 18 h incubation, compounds 0 - 100 µM; read-out: IC50 Cancer cells U937 (Acute myeloid leukaemia)
Method: as §2, §3

[7] = Homo sapiens, HaCaT, 72 h treatment, resazurin assay, mean ± SEM
[8] = Homo sapiens, 72 h treatment, resazurin assay, mean ± SEM
[9] = Homo sapiens, A549, 72 h treatment, resazurin assay, mean ± SEM
[10] = Homo sapiens, MeWo, 72 h treatment, resazurin assay, mean ± SEM
[11] = 72 h treatment, resazurin assay, mean ± SEM

Row | IC50 [4] [µM] | IC50 (OPM-2 (Multiple myeloma)) [µM] | IC50 [5] [µM] | IC50 [6] [µM] | SMILES | IC50 (HaCaT cells; Homo sapiens, HaCaT, 72 h) [µM] | IC50 ([1]; Homo sapiens, 72 h) [µM] | S.I. T24 (Selectivity Index) [1] | IC50 ([2]; Homo sapiens, A549, 72 h) [µM] | S.I. A549 (Selectivity Index) [2] | IC50 ([3]; Homo sapiens, MeWo, 72 h) [µM] | S.I. MeWo (Selectivity Index) [3] | IC50 (HaCaT cells; [7]) [µM] | IC50 [1, 8] [µM] | IC50 [2, 9] [µM] | IC50 [3, 10] [µM] | IC50 (HaCaT cells; [11]) [µM] | IC50 [1, 11] [µM] | IC50 [2, 11] [µM] | IC50 [3, 11] [µM]
1 | 38.1 | – | 50.3 | 41.2 | CC[S@@+]([O-])[C@H]1O[C@H](COC(C)=O)[C@@H](OC(C)=O)[C@H](N=C=S)[C@H]1OC(C)=O [(RS)-17α, Ethyl 2,4,6-tri-O-acetyl-3-isothiocyanato-1,3-dideoxy-1[(R)-sulfinyl]-α-D-glucopyranse] | – | – | > 1.6 | – | > 1.1 | – | > 1.1 | > 100 | 65.6 ± 13.3 | 108 ± 25.7 | 113 ± 39.2 | – | – | – | –
2 | 46.3 | 19.6 | 7.4 | ~47.3 | CC(=O)OC[C@H]1O[C@H]([S@+]([O-])c2ccccc2)[C@H](OC(C)=O)[C@@H](N=C=S)[C@@H]1OC(C)=O [(RS)-18α, Phenyl 2,4,6-tri-O-acetyl-3-isothiocyanato-1,3-dideoxy-1[(R)-sulfinyl]-α-D-glucopyranose] | – | – | 1.3±0.5 | – | 1.1±0.4 | – | 1.0±0.4 | 51 ± 17.6 | 48.6 ± 8.6 | 55.7 ± 8.4 | 55.3 ± 7.6 | – | – | – | –
3 | – | – | – | – | CC(=O)OC[C@H]1O[C@@H]([S@+]([O-])c2ccccc2)[C@H](OC(C)=O)[C@@H](N=C=S)[C@@H]1OC(C)=O [(RS)-18β, Phenyl 2,4,6-tri-O-acetyl-3-isotiocianato-1,3-dideoxy-1[(R)-sulfinyl]-β-D-glucopyranose] | – | – | 2.2±0.4 | – | 1.7±0.2 | – | 1.8±0.2 | 39.4 ± 8.7 | 17.2 ± 1.2 | 21.9 ± 2.5 | 21.9 ± 2.9 | – | – | – | –
4 | 128 | 64.9 | 36.9 | ~51.2 | CC(=O)OCC1OC([S+](C)[O-])C(OC(C)=O)C(N=C=S)C1OC(C)=O [(SS)-16β, Methyl 2,4,6-tri-O-acetyl-3-isothiocyanato-1,3-dideoxy-1-(S)-sulfinyl-β-D-glucopyranoside] | – | – | – | – | – | – | – | > 100 | 94.2 ± 13.2 | 109 ± 23.7 | 122 ± 20.7 | – | – | – | –
5 | 89.5 | 52.4 | ~25.3 | 45.6 | CC[S@+]([O-])[C@@H]1O[C@H](COC(C)=O)[C@@H](OC(C)=O)[C@H](N=C=S)[C@H]1OC(C)=O [(SS)-17β, Ethyl 2,4,6-tri-O-acetyl-3-isotiocianato-1,3-dideoxy-1[(S)-sulfinyl]-β-D-glucopyranose] | – | – | 2.0±0.2 | – | 1.5±0.1 | – | 1.7±0.0 | 85.2 ± 12.7 | 42.3 ± 3.2 | 56.4 ± 6.6 | 51.5 ± 7.9 | – | – | – | –
6 | – | – | – | – | N.N.[Cl][Pt][Cl] [Cisplatin, reference compound] | – | – | – | – | – | – | – | – | – | – | – | 2.1 ± 0.7 | 1.6 ± 0.5 | 13.5 ± 2.7 | 2.2 ± 1.1
7 | – | – | – | – | CC(=O)OC[C@H]1O[C@@H](Sc2ccccc2)[C@H](OC(C)=O)[C@@H](N=C=S)[C@@H]1OC(C)=O [Compound 15β, Phenyl 2,4,6-tri-O-acetyl-3-isothiocyanato-1,3-dideoxy-1-thio-β-D-glucopyranoside] | – | – | 1.2±0.1 | – | 1.3±0.1 | – | 1.1±0.0 | 32.2 ± 10.2 | 27.1 ± 8.7 | 32.2 ± 10.2 | 30.2 ± 9.5 | – | – | – | –
8 | – | – | – | – | CC(=O)OC[C@H]1O[C@H](S(=O)(=O)c2ccccc2)[C@H](OC(C)=O)[C@@H](N=C=S)[C@@H]1OC(C)=O [Compound 21α, Phenyl 2,4,6-tri-O-acetyl-3-isothiocyanato-1,3-dideoxy-1-sulfonyl-α-D-glucopyranose] | 45 ± 8.9 | 18.5 ± 0.6 | 2.4±0.4 | 22.9 ± 3.7 | 1.9±0.2 | 22.9 ± 5.9 | 2.0±0.3 | – | – | – | – | – | – | – | –
9 | – | – | – | – | C[S+]([O-])CCCCN=C=S (stereo not drawn) [SFN, sulforaphane, reference compound] | – | – | 2.6±0.3 | – | 1.7 ± 0.2 | – | 1.7±0.4 | 16.6 ± 2.4 | 6.3 ± 0.2 | 10.6 ± 2.1 | 12.9 ± 4.2 | – | – | – | –

Row | SMILES | IC50 [4] [µM] | IC50 (OPM-2 (Multiple myeloma)) [µM] | IC50 [5] [µM] | IC50 [6] [µM] | IC50 (HaCaT cells; Homo sapiens, HaCaT, 72 h) [µM] | IC50 ([1]; Homo sapiens, 72 h) [µM] | S.I. T24 (Selectivity Index) [1] | IC50 ([2]; Homo sapiens, A549, 72 h) [µM] | S.I. A549 (Selectivity Index) [2] | IC50 ([3]; Homo sapiens, MeWo, 72 h) [µM] | S.I. MeWo (Selectivity Index) [3] | IC50 (HaCaT cells; [7]) [µM] | IC50 [1, 8] [µM] | IC50 [2, 9] [µM] | IC50 [3, 10] [µM] | IC50 (HaCaT cells; [11]) [µM] | IC50 [1, 11] [µM] | IC50 [2, 11] [µM] | IC50 [3, 11] [µM]
10 | C[S+]([O-])CCCN=C=S (racemic) [rac-5, 1-isothiocyanato-3-(methylsulfinyl)propane, reference compound] | 13.7 | 19.4 | 11 | 8.5 | 33 ± 5.8 | 12.2 ± 2.9 | 2.9±0.3 | 20.7 ± 5.7 | 1.8±0.3 | 32.8 ± 5.8 | 1.0±0.1 | – | – | – | – | – | – | – | –
11 | CSCCCN=C=S [Compound 4, (3-isothiocyanatopropyl)(methyl)sulfane, reference compound] | 8.9 | 12 | 9 | – | 43.9 ± 3.2 | 14.4 ± 1.1 | – | 31.1 ± 7.6 | – | 31.6 ± 5.7 | – | – | – | – | – | – | – | – | –

— patent EP4534542A1, “THIOSUGAR BASED ISOTHIOCYANATES AND USES THEREOF” (Universidad de Sevilla, priority 2023, dated 2025)
